Publication PMC6697720, “Saturation of acyl chains converts cardiolipin from an antagonist to an activator of Toll-like receptor-4” (Cellular and Molecular Life Sciences: CMLS, 2019)

Assays:
immortalized BMDMs = assay: TNF-α secretion in immortalized BMDMs (WT or TLR4-KO) incubated with CL or LPS; format: cell-based, murine; conditions: CL alone, overnight, immortalized BMDM
Method: Immortalized BMDM were seeded the day before the experiment at 5 × 10^5 cells/mL in 48-well plates (500 μL/well).
After stimulation, supernatants were collected, centrifuged, and assayed for cytokine secretion, while cells were assayed for viability.
TNF-α and IP-10 were quantified in cell supernatants using DuoSet ELISA kits from R&D Systems and human IL-1β using Instant ELISA™ Kit from Invitrogen, according to the manufacturer’s instructions. Absorbance was read with a BioTek Synergy HT Microplate Readers.
(§1) Fig. 3 Saturated but not unsaturated CLs have pro-inflammatory properties. a RAW-Blue™ cells were incubated overnight with the indicated amount of CL or LPS, supernatants were collected, and NF-κB activation quantified via Quanti-Blue™ test and reported here as fold induction as compared to control. Unpaired t test: differences with respect to the control (Ctrl) are not significant if p > 0.05 (no symbol); *p ≤ 0.0007. b Immortalized BMDM cells were incubated overnight with the indicated amount of CL or LPS; supernatants were collected and TNF-α quantified via ELISA assay. c, d Primary human monocytes were incubated overnight with the indicated amount of CL or LPS with or without the NLRP3 inhibitor MCC950, supernatants were collected, and TNF-α and IL-1β were quantified via ELISA assay. Graphs are representative of experiments from six different donors. Unpaired t test: differences with respect to the control (Ctrl) are not significant if p > 0.05 (no symbol); *p ≤ 0.021. Each bar represents the mean + standard deviation of three biological replicates (n = 3). Graphs are representative of at least three independent experiments
(§2) Fig. 4 Saturated CLs are TLR4 agonists. a HEK293 cells were transfected with plasmids encoding murine TLR4, MD2, and CD14 (mTLR4), human TLR4, MD2, and CD14 (hTLR4) or with empty pcDNA3.1 plasmid, MD2 and CD14 (w/o TLR) together with a luciferase reporter plasmid dependent on NF-κB activation and a constitutively active reporter vector-encoding renilla luciferase. Two days after transfection, cells were incubated for 6 h with medium alone (Ctrl) or the indicated amount of CLs or LPS. Luciferase and renilla were quantified in cell lysate, normalized and reported here as fold induction as compared to control. Unpaired t test: differences compared to the control are not significant if p > 0.05(no symbol); *p ≤ 0.005. b WT and TLR4-KO iBMDM cells were incubated overnight with medium (c), LPS or C14:0 CL. For each condition, mTNF-α was measured by ELISA assay. Unpaired t test: differences with respect to the control are not significant if p > 0.05(no symbol); *p ≤ 0.0001. Each bar represents the mean + standard deviation of three biological replicates (n = 3). Graphs are representative of at least three independent experiments

human TLR4/MD2/CD14 = molecular target: T1, human TLR4/MD2/CD14 (Homo sapiens, UniProt O00206+Q9Y6Y9); assay: Inhibition of LPS-induced NF-κB luciferase reporter in HEK293 cells transfected with human TLR4/MD2/CD14; format: cell-based; conditions: for inhibition of LPS-induced signaling (LPS dose-response, 0 to 1000 ng/mL), mode of action: 1 h CL pre-incubation
T1 construct: expressed in transfected cells; host or cells: HEK293 (ATCC CRL1573), transient transfection with jetPEI
T1 sequence (O00206 24-839): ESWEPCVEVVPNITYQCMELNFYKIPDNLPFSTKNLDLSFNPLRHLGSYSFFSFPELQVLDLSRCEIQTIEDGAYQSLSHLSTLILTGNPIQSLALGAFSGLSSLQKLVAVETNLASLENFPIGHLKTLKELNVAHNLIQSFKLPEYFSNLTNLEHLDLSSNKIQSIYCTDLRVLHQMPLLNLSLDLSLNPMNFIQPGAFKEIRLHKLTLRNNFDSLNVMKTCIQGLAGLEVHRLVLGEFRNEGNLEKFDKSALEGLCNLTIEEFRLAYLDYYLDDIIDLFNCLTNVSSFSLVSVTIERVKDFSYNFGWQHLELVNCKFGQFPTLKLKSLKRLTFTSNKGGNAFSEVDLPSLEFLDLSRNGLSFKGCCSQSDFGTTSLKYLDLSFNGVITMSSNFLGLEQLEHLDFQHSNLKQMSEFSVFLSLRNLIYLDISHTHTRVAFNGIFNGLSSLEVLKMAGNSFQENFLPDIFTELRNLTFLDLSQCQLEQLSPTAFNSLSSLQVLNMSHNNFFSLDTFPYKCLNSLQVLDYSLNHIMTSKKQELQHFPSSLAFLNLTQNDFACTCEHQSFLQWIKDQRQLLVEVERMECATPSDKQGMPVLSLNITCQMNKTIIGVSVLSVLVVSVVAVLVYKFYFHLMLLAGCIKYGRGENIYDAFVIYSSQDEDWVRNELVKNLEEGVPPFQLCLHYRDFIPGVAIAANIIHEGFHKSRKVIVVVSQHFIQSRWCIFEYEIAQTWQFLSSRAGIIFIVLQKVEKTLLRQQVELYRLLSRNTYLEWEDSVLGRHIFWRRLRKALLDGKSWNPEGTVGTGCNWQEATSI
T1 sequence (Q9Y6Y9 19-160): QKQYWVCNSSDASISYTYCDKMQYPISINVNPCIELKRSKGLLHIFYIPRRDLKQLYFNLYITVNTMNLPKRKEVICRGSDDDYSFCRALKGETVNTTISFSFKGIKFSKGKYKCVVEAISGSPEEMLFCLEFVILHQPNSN
Method: (§3) Cells were seeded at 4 × 10^4 cells/mL in 96-well plates (200 μL/well) and transiently transfected 4 days later. Expression vectors containing an NF-κB transcription reporter vector-encoding firefly luciferase (10 ng/well pNF-κB-luc from Clontech), and a constitutively active reporter vector-encoding Renilla luciferase (5 ng/well phRG-TK; Promega), together with empty vector (pcDNA3.1 from Invitrogen Cat. N. V79020) and cDNA encoding human membrane CD14 (3 ng/well) and human or murine TLR4 and MD2 (3 ng/well) were mixed with jetPEI (Polyplus transfection Cat.N. 101-10N) and incubated with cells according to the manufacturer’s instructions.
(§4) After treatment supernatants were discarded, cells were washed with PBS and lysed with passive lysis buffer (Promega Cat.N. E1941). Luciferase and Renilla activity on cell lysates were quantified on a BioTek Synergy HT microplate reader using home-made luciferase reagent (20 mM Tricine, 2.67 mM MgSO4·7H2O, 0.265 mM (MgCO3)4Mg(OH)2·5H2O, 0.1 mM EDTA, 33.3 mM DTT, 530 μM ATP, 270 μM Acetyl Coenzyme A (Lithium salt), 470 μM luciferin (Biosynth), pH 7.8, diluted two times in water before use), or coelenterazine (Biosynth) dissolved in ethanol at 1 mg/mL and diluted 500 times in PBS before use as previously described. Firefly and Renilla luciferase activity on cell lysates were normalized, and data were expressed as fold induction as compared to unstimulated conditions.
In contrast to C16:0 and C18:0, C14:0 CL acted as an agonist in murine but not human cells (Fig. 3), a property similar to that of the LPS variant lipid IVa. to establish whether C14:0, like lipid IVa, is a weak human TLR4 antagonist, we tested the ability of all saturated CLs to inhibit signaling induced by LPS over a range of concentrations. For each CL, cells transfected with human TLR4/MD2/CD14 were pre-incubated with medium alone or two different CL concentrations for 1 h, and then washed and incubated for 6 h with increasing amounts of LPS (from 0 to 1000 ng/mL). […] The dose–response curve of LPS was shifted to the right.
(§5) Fig. 6 C14:0 is a competitive human TLR4 antagonist. HEK293 cells were transfected with plasmids encoding hTLR4, hMD2, and hCD14 together with a luciferase reporter plasmid dependent on NF-κB activation and a constitutively active reporter vector-encoding renilla luciferase. Two days after transfection, cells were incubated for 1 h with medium alone or the indicated amount of CLs, then washed and incubated 6 h with increasing amount of LPS. Luciferase and renilla were then quantified in cell lysate, and normalized and reported here as fold induction as compared to control. Each bar represents the mean ± standard deviation of three biological replicates (n = 3). Graphs are representative of at least three independent experiments
as §5, with “7 Unsaturated cardiolipins are” for “6 C14:0 is a”, “antagonists.” for “antagonist.”, “CLs, and” for “CLs,”
To quantify and compare the potency of CLs as inhibitors, we determined IC50 values in HEK293 cells transfected with human TLR4/MD2/CD14, for each of the antagonists (Fig. 8 and Table 1). […]

RAW-Blue cells = assay: NF-κB activation (SEAP, Quanti-Blue) by CL or LPS in RAW-Blue cells; format: cell-based, murine; conditions: CL alone, overnight
Method: RAW-Blue™ cells were seeded the day before the experiment at 5 × 10^5 cells/mL in 48-well plates (500 μL/well).
These cells express a secreted embryonic alkaline phosphatase (SEAP) when NF-κB is activated. NF-κB activation was measured by measuring the alkaline phosphatase produced by RAW-Blue™ cells using the Quanti-Blue™ reagent (InvivoGen), according to the manufacturer’s instructions.
as §1

[1] = molecular target: T2, human TLR4, MD2, and CD14 (Homo sapiens, UniProt O00206+Q9Y6Y9); assay: NF-κB luciferase reporter activation by CLs in HEK293 cells transfected with human TLR4, MD2 and CD14; format: cell-based
T2 construct: expressed in transfected cells; host or cells: HEK293 (ATCC CRL1573), transient transfection with jetPEI
T2 sequence (O00206 24-839): as the sequence (O00206 24-839) above
T2 sequence (Q9Y6Y9 19-160): as the sequence (Q9Y6Y9 19-160) above
Method: as §3, §4
The first signaling event of these pathways is NF-κB activation through TLR4 activation. To investigate how the individual CD14, TLR4, and MD2 proteins contribute to the responses of cells to CL, we used the HEK transfection model where we can control which protein (including from different species) may be added to the cells and their contribution to CL activation of Nf-κB [21, 30, 31]. We transfected HEK293 cells with human or murine CD14 and MD2 with or without TLR4 and incubated them with saturated CLs for 6 h (Fig. 4a). All three saturated CLs activated murine TLR4. By contrast, only C16:0 and C18:0 activated the human receptor. To further confirm the role of TLR4, we compared TNF-α secretion induced by C14:0 CL in wild-type (WT) or TLR4 knock out (TLR4 KO) immortalized BMDMs. Both LPS and C14:0 CL induced TNF-α secretion in WT but not in TLR4-KO BMDMs (Fig. 4b). TLR4-KO BMDMs were normally responsive to TLR2 ligand Pam3CSK4 (data not shown).
as §2, with “Graphs are representative of at least three independent experiments” left out

[2] = HEK293 hTLR4/hMD2/hCD14, 1 h CL, washed, 6 h LPS, Prism fit of Fig. 8 data

Structure (SMILES)	TNF-α secretion (immortalized BMDMs)	inhibition of LPS-induced signaling (LPS dose-response, 0 to 1000 ng/mL), mode of action (human TLR4/MD2/CD14; washed, 6 h LPS)	IC50 (human TLR4/MD2/CD14; [2]) [nM]	IC50 (human TLR4/MD2/CD14; HEK293 human TLR4/MD2/CD14) [nM]	difference in potency between C14:1 and C18:1 (human TLR4/MD2/CD14; ratio of IC50 values, Table 1) [fold]	NF-κB activation (RAW-Blue cells)	activation of human TLR4 (NF-κB) ([1]; 6 h incubation)	NF-κB induction in HEK293 cells transfected with TLR4 in the absence of CD14 or MD2 ([1]; hTLR4 without CD14 or without MD2, 6 h)
CCCC/C=C\CCCCCCCC(=O)OC[C@H](COP(=O)(O)OCC(O)COP(=O)(O)OC[C@@H](COC(=O)CCCCCCC/C=C\CCCC)OC(=O)CCCCCCC/C=C\CCCC)OC(=O)CCCCCCC/C=C\CCCC (stereo partly shown) [C14:1 CL]	not	competitive TLR4 antagonists	77.9	77	400	not	–	–
CCCCCC/C=C\CCCCCCCC(=O)OC[C@H](COP(=O)(O)OCC(O)COP(=O)(O)OC[C@@H](COC(=O)CCCCCCC/C=C\CCCCCC)OC(=O)CCCCCCC/C=C\CCCCCC)OC(=O)CCCCCCC/C=C\CCCCCC (stereo partly shown) [C16:1 CL]	not	competitive TLR4 antagonists	925	–	–	not	–	–
CCCCCCCCCCCCCCCC(=O)OC[C@H](COP(=O)(O)OCC(O)COP(=O)(O)OC[C@@H](COC(=O)CCCCCCCCCCCCCCC)OC(=O)CCCCCCCCCCCCCCC)OC(=O)CCCCCCCCCCCCCCC (stereo partly shown) [C16:0 CL]	induced	did not inhibit	–	–	–	induced	activated	not induced
CCCCCCCC/C=C\CCCCCCCC(=O)OC[C@H](COP(=O)(O)OCC(O)COP(=O)(O)OC[C@@H](COC(=O)CCCCCCC/C=C\CCCCCCCC)OC(=O)CCCCCCC/C=C\CCCCCCCC)OC(=O)CCCCCCC/C=C\CCCCCCCC (stereo partly shown) [C18:1 CL]	not	competitive TLR4 antagonists	33500	–	–	not	–	–
